Patent publication US11033539B2, “Compounds of formulas (VII), (VIII), (IX), (XI), (XII), (XIII), and (XIV) as muscarinic receptor 4(M4) antagonists for treating neurological diseases” (Neurocrine Biosciences, Inc., priority 2015, dated 2021)

Target: human M4 receptor (Homo sapiens (Human), UniProt P08173)
Assay: Radioligand (tritiated N-methylscopolamine) binding assay, M4
Conditions: Ki against the M4 receptor; membranes from CHO cells expressing human M4; tritiated N-methylscopolamine 1.5 nM; read-out: Ki
In short: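 Test compound (12 concentrations, 10 μM to […]), 1.5 nM radioligand and CHO receptor membranes were co-incubated at 37 °C for 90 minutes in 50 mM HEPES buffer with 100 mM NaCl, 5 mM MgCl2 and 1 mM EDTA, pH 7.4. Membranes were then harvested onto polyethylenimine-pretreated filters and radioactivity was counted to determine Ki.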

human M4 receptor, sequence (P08173 whole entry): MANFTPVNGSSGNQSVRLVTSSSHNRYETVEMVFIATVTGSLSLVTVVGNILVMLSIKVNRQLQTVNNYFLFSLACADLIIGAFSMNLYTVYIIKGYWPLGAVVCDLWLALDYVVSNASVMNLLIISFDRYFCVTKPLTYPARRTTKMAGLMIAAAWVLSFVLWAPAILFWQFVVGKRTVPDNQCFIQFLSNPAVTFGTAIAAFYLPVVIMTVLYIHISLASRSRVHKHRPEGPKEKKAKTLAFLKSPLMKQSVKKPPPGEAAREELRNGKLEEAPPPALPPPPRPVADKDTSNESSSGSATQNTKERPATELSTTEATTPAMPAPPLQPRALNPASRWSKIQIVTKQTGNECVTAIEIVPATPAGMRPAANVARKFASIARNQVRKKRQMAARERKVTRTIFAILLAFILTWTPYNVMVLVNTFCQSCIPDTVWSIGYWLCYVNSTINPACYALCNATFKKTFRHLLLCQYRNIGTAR

With `O=C(NCCN[C@@H]1CCN(Cc2ccccc2)C1)C1CCN(c2cccc(OC(F)(F)F)c2)CC1` [9-54, N-(2-{[(3R)-1-benzylpyrrolidin-3-yl]amino}ethyl)-1-[3-(trifluoromethoxy)phenyl]piperidine-4-carboxamide] as the compound, how does the Ki read?
The Ki was 100 to 1000 nM.

How did the Ki turn out when `C[C@@H]1CN(c2ncc(F)cc2F)CCN1C(=O)NCCC1CCN(Cc2ccccc2)CC1` [4-48, (2R)-N-[2-(1-benzylpiperidin-4-yl)ethyl]-4-(3,5-difluoropyridin-2-yl)-2-methylpiperazine-1-carboxamide] was run?
Its Ki is 10 to 100 nM.

With `CC(C)CNC(=O)c1cnc(N2CCN(C(=O)NCCC3CCN(Cc4ccccc4)CC3)[C@H](C)C2)nc1` [27-12] as the compound, how does the Ki read?
The Ki was 10 to 100 nM.

How did the Ki turn out when `COc1nc(N2CCN(C(=O)NCCC3CCN(Cc4ccccc4)CC3)[C@H](C)C2)ncc1C#N` [4-26, (2R)-N-[2-(1-benzylpiperidin-4-yl)ethyl]-4-(5-cyano-4-methoxypyrimidin-2-yl)-2-methylpiperazine-1-carboxamide] was run?
Its Ki is 10 to 100 nM.

For `Cc1c(C(=O)NCCC2CCN(Cc3ccccn3)CC2)cnc2cc(-c3cccc(C(F)(F)F)c3)nn12` [19-6], which Ki is on record?
The Ki was 100 to 1000 nM.

With `C[C@@H]1CN(c2ncc(C#N)cn2)C[C@H](C)N1C(=O)NCCC1CCN(Cc2ncccn2)CC1` [6-58, (2R,6S)-4-(5-cyanopyrimidin-2-yl)-2,6-dimethyl-N-{2-[1-(pyrimidin-2-ylmethyl)piperidin-4-yl]ethyl}piperazine-1-carboxamide] as the compound, how does the Ki read?
The Ki was 100 to 1000 nM.

How did the Ki turn out when `C[C@@H]1CN(c2cnc(C(F)(F)F)nc2)C[C@H](C)N1C(=O)NCCC1CCN(Cc2ccc(O)cc2)CC1` [6-54, (2R,6S)-N-(2-{1-[(4-hydroxyphenyl)methyl]piperidin-4-yl}ethyl)-2,6-dimethyl-4-[2-(trifluoromethyl)pyrimidin-5-yl]piperazine-1-carboxamide] was run?
The Ki was 10 to 100 nM.

For `C[C@@H]1CN(c2ncc(C#N)cn2)C[C@H](C)N1C(=O)NCCC1CCN(CC23CC(C2)C3)CC1` [21-12], which Ki is on record?
The Ki was 100 to 1000 nM.

How did the Ki turn out when `COc1ccc(N2CCC(C(=O)NCCC3CCN(Cc4ccccc4)CC3)CC2)cc1C#N` [10-2, N-[2-(1-benzylpiperidin-4-yl)ethyl]-1-(3-cyano-4-methoxyphenyl)piperidine-4-carboxamide] was run?
Its Ki is 100 to 1000 nM.

For `COc1cccc(CN2CCC(CCNC(=O)c3cnc4cc(-c5ccccc5)nn4c3C)CC2)c1` [19-7], which Ki is on record?
The Ki was 100 to 1000 nM.

`C[C@@H]1CN(c2ncc(C(F)(F)F)cn2)CCN1C(=O)NCCC1CCN(Cc2ccccc2C#N)CC1` [6-34, (2R)-N-(2-{1-[(2-cyanophenyl)methyl]piperidin-4-yl}ethyl)-2-methyl-4-[5-(trifluoromethyl)pyrimidin-2-yl]piperazine-1-carboxamide] was tested. Which Ki did it give?
The Ki was 100 to 1000 nM.

How did the Ki turn out when `Cc1c(C(=O)NCCC2CCN(Cc3ccccc3)CC2)cnc2cc(-c3ccccn3)nn12` [18-2, N-[2-(1-benzylpiperidin-4-yl)ethyl]-7-methyl-2-(pyridin-2-yl)pyrazolo[1,5-a]pyrimidine-6-carboxamide] was run?
The Ki was 100 to 1000 nM.

For “4-(benzyloxy)-N-{2-[1-(pyridin-3-ylmethyl)piperidin-4-yl]ethyl}benzamide [11-20]”, which Ki is on record?
Its Ki is 100 to 1000 nM.

`CO[C@H](CNC(=O)N1CCN(c2ccc(F)c(C#N)c2)C[C@H]1C)C1CCN(Cc2ccccc2)CC1` [3-6, (2R)-N-[(2S)-2-(1-benzylpiperidin-4-yl)-2-methoxyethyl]-4-(3-cyano-4-fluorophenyl)-2-methylpiperazine-1-carboxamide] was tested. Which Ki did it give?
The Ki was 10 to 100 nM.

With `COc1ccccc1-c1cc2ncc(C(=O)NCCC3CCN(Cc4ccccc4)CC3)c(C)n2n1` [18-9] as the compound, how does the Ki read?
The Ki was 10 to 100 nM.

For `CNc1nc(N2C[C@@H](C)N(C(=O)NCCC3CCN(Cc4ccccc4)CC3)[C@@H](C)C2)ncc1C#N` [5-21, (2R,6S)-N-[2-(1-benzylpiperidin-4-yl)ethyl]-4-[5-cyano-4-(methylamino)pyrimidin-2-yl]-2,6-dimethylpiperazine-1-carboxamide], which Ki is on record?
Its Ki is 100 to 1000 nM.

With `C[C@@H]1CN(c2cnc(C(F)(F)F)nc2)C[C@H](C)N1C(=O)NCCC1CCN(Cc2ccccc2F)CC1` [6-52, (2R,6S)-N-(2-{1-[(2-fluorophenyl)methyl]piperidin-4-yl}ethyl)-2,6-dimethyl-4-[2-(trifluoromethyl)pyrimidin-5-yl]piperazine-1-carboxamide] as the compound, how does the Ki read?
Its Ki is 10 to 100 nM.

Which Ki does the source give for `O=C(NCCC1CCN(Cc2ccccc2)CC1)C1CCN(c2ccc(OC(F)F)cc2)CC1` [10-76, N-[2-(1-benzylpiperidin-4-yl)ethyl]-1-[4-(difluoromethoxy)phenyl]piperidine-4-carboxamide] here?
Its Ki is 10 to 100 nM.

`CN(CCNC(=O)C1CCN(c2ccc(OC(F)(F)F)cc2)CC1)[C@@H]1CCN(Cc2ccccc2)C1` [9-26, N-(2-{[(3R)-1-benzylpyrrolidin-3-yl](methyl)amino}ethyl)-1-[4-(trifluoromethoxy)phenyl]piperidine-4-carboxamide] was tested. Which Ki did it give?
The Ki was 10 to 100 nM.

With `C[C@@H]1CN(c2ncc(C#N)cn2)C[C@H](C)N1C(=O)NCCC1CCN(Cc2ccc3occc3c2)CC1` [6-60, (2R,6S)-N-{2-[1-(1-benzofuran-5-ylmethyl)piperidin-4-yl]ethyl}-4-(5-cyanopyrimidin-2-yl)-2,6-dimethylpiperazine-1-carboxamide] as the compound, how does the Ki read?
The Ki was 10 to 100 nM.

`C[C@@H]1CN(c2ncc(C#N)cn2)C[C@H](C)N1C(=O)NCCC1CCN(CCc2ccccc2)CC1` [6-44, (2R,6S)-4-(5-cyanopyrimidin-2-yl)-2,6-dimethyl-N-{2-[1-(2-phenylethyl)piperidin-4-yl]ethyl}piperazine-1-carboxamide] was tested. Which Ki did it give?
The Ki was 100 to 1000 nM.

How did the Ki turn out when `C[C@@H]1CN(c2ccc(C#N)c(N(C)C)c2)CCN1C(=O)NCCC1CCN(Cc2ccccc2)CC1` [22-26] was run?
Its Ki is 10 to 100 nM.

For `O=C(NCCC1CCN(Cc2ccccc2)CC1)C1CCN(c2cccc3c2OC(F)(F)O3)CC1` [10-45, N-[2-(1-benzylpiperidin-4-yl)ethyl]-1-(2,2-difluoro-2H-1,3-benzodioxol-4-yl)piperidine-4-carboxamide], which Ki is on record?
The Ki was 10 to 100 nM.

With `N#Cc1ccc(N2CCC(C(=O)NCCC3CCN(Cc4ccccc4)CC3)CC2)nc1` [9-47, N-[2-(1-benzylpiperidin-4-yl)ethyl]-1-(5-cyanopyridin-2-yl)piperidine-4-carboxamide] as the compound, how does the Ki read?
The Ki was 100 to 1000 nM.

For `C[C@@H]1CN(c2ncc(F)cn2)C[C@H](C)N1C(=O)NCCC1CCN(Cc2ccccc2)CC1` [5-19, (2S,6R)-N-[2-(1-benzylpiperidin-4-yl)ethyl]-4-(5-fluoropyrimidin-2-yl)-2,6-dimethylpiperazine-1-carboxamide], which Ki is on record?
The Ki was 10 to 100 nM.

With `O=C(NCCN1CCC(Cc2ccccc2)CC1)c1ccn2cc(-c3ccc(OC(F)(F)F)cc3)nc2c1` [9-68, N-[2-(4-benzylpiperidin-1-yl)ethyl]-2-[4-(trifluoromethoxy)phenyl]imidazo[1,2-a]pyridine-7-carboxamide] as the compound, how does the Ki read?
The Ki was 100 to 1000 nM.

For `Cc1[nH]c(-c2ccc(Cl)cc2Cl)nc1C(=O)NCCC1CCN(Cc2ccccc2)CC1` [9-61, N-[2-(1-benzylpiperidin-4-yl)ethyl]-2-(2,4-dichlorophenyl)-5-methyl-1H-imidazole-4-carboxamide], which Ki is on record?
Its Ki is 100 to 1000 nM.

For `C[C@@H]1CN(c2cc(F)cc(C#N)c2)CCN1C(=O)NC[C@H](O)C1CCN(Cc2ccccc2)CC1` [7-4, (2R)-N-[(2R)-2-(1-benzylpiperidin-4-yl)-2-hydroxyethyl]-4-(3-cyano-5-fluorophenyl)-2-methylpiperazine-1-carboxamide], which Ki is on record?
The Ki was 10 to 100 nM.

`O=C(CCC1CCN(Cc2ccccc2)CC1)NC1CCN(c2ccc(OC(F)(F)F)cc2)CC1` [9-36, 3-(1-benzylpiperidin-4-yl)-N-{1-[4-(trifluoromethoxy)phenyl]piperidin-4-yl}propanamide] was tested. Which Ki did it give?
Its Ki is 100 to 1000 nM.

How did the Ki turn out when `O=C(NCCC1CCN(Cc2ccccc2)CC1)C1CCN(c2ccc(F)cn2)CC1` [10-73, N-[2-(1-benzylpiperidin-4-yl)ethyl]-1-(5-fluoropyridin-2-yl)piperidine-4-carboxamide] was run?
Its Ki is 100 to 1000 nM.

With `N#Cc1cccc(N2CCN(C(=O)NCCC3CCN(Cc4ccccc4)CC3)CC2)c1` [8-25, N-[2-(1-benzylpiperidin-4-yl)ethyl]-4-(3-cyanophenyl)piperazine-1-carboxamide] as the compound, how does the Ki read?
Its Ki is 100 to 1000 nM.

With `CS(=O)(=O)c1cccc(N2CCC(C(=O)NCCC3CCN(Cc4ccccc4)CC3)CC2)c1` [10-65, N-[2-(1-benzylpiperidin-4-yl)ethyl]-1-(3-methanesulfonylphenyl)piperidine-4-carboxamide] as the compound, how does the Ki read?
Its Ki is 100 to 1000 nM.

With `O=C(NCCC1CCN(Cc2ccccc2)CC1)N1CCN(c2ncc(C(F)(F)F)cc2Cl)CC1` [8-15, N-[2-(1-benzylpiperidin-4-yl)ethyl]-4-[3-chloro-5-(trifluoromethyl)pyridin-2-yl]piperazine-1-carboxamide] as the compound, how does the Ki read?
The Ki was 10 to 100 nM.

For `O=C(NCCC1CCN(Cc2ccccc2)CC1)c1ccc(-c2ccc(O)cc2)cc1` [9-69, N-[2-(1-benzylpiperidin-4-yl)ethyl]-4-(4-hydroxyphenyl)benzamide], which Ki is on record?
The Ki was 100 to 1000 nM.

`Cc1nc(CN2CCC(CCNC(=O)N3CCN(c4cc(F)c(F)c(F)c4)C[C@H]3C)CC2)cs1` [6-12, (2R)-2-methyl-N-(2-{1-[(2-methyl-1,3-thiazol-4-yl)methyl]piperidin-4-yl}ethyl)-4-(3,4,5-trifluorophenyl)piperazine-1-carboxamide] was tested. Which Ki did it give?
Its Ki is 10 to 100 nM.

For `O=C(c1ccc(-c2ccccc2)cc1)N(C1CC1)C1CCN(Cc2ccccc2)CC1` [9-2, N-(1-benzylpiperidin-4-yl)-N-cyclopropyl-4-phenylbenzamide], which Ki is on record?
The Ki was 100 to 1000 nM.

`Cc1nc(CN2CCC(CCNC(=O)C3CCN(c4ccc(OC(F)(F)F)cc4)CC3)CC2)cs1` [11-4, N-(2-{1-[(2-methyl-1,3-thiazol-4-yl)methyl]piperidin-4-yl}ethyl)-1-[4-(trifluoromethoxy)phenyl]piperidine-4-carboxamide] was tested. Which Ki did it give?
Its Ki is 100 to 1000 nM.

“4-phenoxy-N-{2-[1-(3-phenylpropyl)piperidin-4-yl]ethyl}benzamide [11-28]” was tested. Which Ki did it give?
Its Ki is 100 to 1000 nM.

`CN(CCNC(=O)C1CCN(c2ccc(OC(F)(F)F)c(F)c2)CC1)C1CN(Cc2ccccc2)CC1CO` (stereo not drawn) [9-35, N-(2-{[1-benzyl-4-(hydroxymethyl)pyrrolidin-3-yl](methyl)amino}ethyl)-1-[3-fluoro-4-(trifluoromethoxy)phenyl]piperidine-4-carboxamide] was tested. Which Ki did it give?
Its Ki is 100 to 1000 nM.
